# Measurements taken from PubChem BioAssay (NCI).
#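 These data come from cells grown in 96-well plates and exposed to compound for 48 hours at five concentrations. At the TGI there is no net growth.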
# Key:
# Experiment in all cases: DTP human tumour cell line panel, 48 h
# NCI-H522 lung = system: NCI-H522 lung
# OVCAR-8 ovarian = system: OVCAR-8 ovarian
# MALME-3M melanoma = system: MALME-3M melanoma
# U251 CNS = system: U251 CNS
# RXF 393 renal = system: RXF 393 renal
# SF-539 CNS = system: SF-539 CNS
# ACHN renal = system: ACHN renal
# HOP-62 NSCLC = system: HOP-62 NSCLC
# CCRF-CEM leukemia = system: CCRF-CEM leukemia
# HCC-2998 colon = system: HCC-2998 colon
# HT29 colon = system: HT29 colon
# OVCAR-5 ovarian = system: OVCAR-5 ovarian
# SN12C renal = system: SN12C renal
# 786-0 renal = system: 786-0 renal
# OVCAR-4 ovarian = system: OVCAR-4 ovarian
# IGROV1 ovarian = system: IGROV1 ovarian
# BT-549 breast = system: BT-549 breast
# EKVX NSCLC = system: EKVX NSCLC
# SK-MEL-28 melanoma = system: SK-MEL-28 melanoma
# NCI-H460 lung = system: NCI-H460 lung
# UO-31 renal = system: UO-31 renal
# K-562 leukemia = system: K-562 leukemia
# RPMI-8226 leukemia = system: RPMI-8226 leukemia
# MDA-MB-231 breast = system: MDA-MB-231 breast
# MOLT-4 leukemia = system: MOLT-4 leukemia
# A549 NSCLC = system: A549 NSCLC
# A498 renal = system: A498 renal
# COLO 205 colon = system: COLO 205 colon
# SNB-19 CNS = system: SNB-19 CNS
# DU-145 prostate = system: DU-145 prostate
# SK-MEL-2 melanoma = system: SK-MEL-2 melanoma
# HL-60(TB) leukemia = system: HL-60(TB) leukemia
# SF-268 CNS = system: SF-268 CNS
# HCT-15 colon = system: HCT-15 colon
# MDA-MB-435 = system: MDA-MB-435
# KM12 colon = system: KM12 colon
# HS 578T breast = system: HS 578T breast
# SW-620 colon = system: SW-620 colon
# CAKI-1 renal = system: CAKI-1 renal
# UACC-62 melanoma = system: UACC-62 melanoma
# SF-295 CNS = system: SF-295 CNS
# SK-OV-3 ovarian = system: SK-OV-3 ovarian
# T-47D breast = system: T-47D breast
# UACC-257 melanoma = system: UACC-257 melanoma
# MDA-N = system: MDA-N
# OVCAR-3 ovarian = system: OVCAR-3 ovarian
# HCT-116 colon = system: HCT-116 colon
# LOX IMVI melanoma = system: LOX IMVI melanoma
# PC-3 prostate = system: PC-3 prostate
# NCI-H226 lung = system: NCI-H226 lung
# HOP-92 NSCLC = system: HOP-92 NSCLC
# M14 melanoma = system: M14 melanoma
# NCI-H23 lung = system: NCI-H23 lung
# MCF7 breast = system: MCF7 breast
# SR leukemia = system: SR leukemia
# TK-10 renal = system: TK-10 renal
# SNB-75 CNS = system: SNB-75 CNS
# SK-MEL-5 melanoma = system: SK-MEL-5 melanoma
# NCI/ADR-RES ovarian = system: NCI/ADR-RES ovarian
compound,measurement,setting,value
COc1cc2c(c(OC)c1OC)-c1c(cc3c(c1OC)OCO3)CC(C)C(C)(O)C2OC(=O)c1ccccc1 (stereo unspecified),TGI,NCI-H522 lung,> 100 µM
same,TGI,OVCAR-8 ovarian,> 100 µM
same,TGI,MALME-3M melanoma,> 100 µM
same,TGI,U251 CNS,> 100 µM
same,TGI,RXF 393 renal,86.2 µM
same,TGI,SF-539 CNS,> 100 µM
same,TGI,ACHN renal,> 100 µM
same,TGI,HOP-62 NSCLC,> 100 µM
same,TGI,CCRF-CEM leukemia,63.9 µM
same,TGI,HCC-2998 colon,> 100 µM
same,TGI,HT29 colon,75.6 µM
same,TGI,OVCAR-5 ovarian,> 100 µM
same,TGI,SN12C renal,> 100 µM
same,TGI,786-0 renal,> 100 µM
same,TGI,OVCAR-4 ovarian,> 100 µM
same,TGI,IGROV1 ovarian,> 100 µM
same,TGI,BT-549 breast,> 100 µM
same,TGI,EKVX NSCLC,> 100 µM
same,TGI,SK-MEL-28 melanoma,> 100 µM
same,TGI,NCI-H460 lung,> 100 µM
same,TGI,UO-31 renal,87.3 µM
same,TGI,K-562 leukemia,> 100 µM
same,TGI,RPMI-8226 leukemia,79.3 µM
same,TGI,MDA-MB-231 breast,57.8 µM
same,TGI,MOLT-4 leukemia,29.3 µM
same,TGI,A549 NSCLC,> 100 µM
same,TGI,A498 renal,> 100 µM
same,TGI,COLO 205 colon,53.5 µM
same,TGI,SNB-19 CNS,> 100 µM
same,TGI,DU-145 prostate,> 100 µM
same,TGI,SK-MEL-2 melanoma,80.5 µM
same,TGI,HL-60(TB) leukemia,48.7 µM
same,TGI,SF-268 CNS,> 100 µM
same,TGI,HCT-15 colon,> 100 µM
same,TGI,MDA-MB-435,> 100 µM
same,TGI,KM12 colon,> 100 µM
same,TGI,HS 578T breast,> 100 µM
same,TGI,SW-620 colon,> 100 µM
same,TGI,CAKI-1 renal,> 100 µM
same,TGI,UACC-62 melanoma,> 100 µM
same,TGI,SF-295 CNS,> 100 µM
same,TGI,SK-OV-3 ovarian,> 100 µM
same,TGI,T-47D breast,> 100 µM
same,TGI,UACC-257 melanoma,> 100 µM
same,TGI,MDA-N,> 100 µM
same,TGI,OVCAR-3 ovarian,> 100 µM
same,TGI,HCT-116 colon,> 100 µM
same,TGI,LOX IMVI melanoma,> 100 µM
same,TGI,PC-3 prostate,> 100 µM
same,TGI,NCI-H226 lung,> 100 µM
same,TGI,HOP-92 NSCLC,73.7 µM
same,TGI,M14 melanoma,> 100 µM
same,TGI,NCI-H23 lung,> 100 µM
same,TGI,MCF7 breast,> 100 µM
same,TGI,SR leukemia,55.9 µM
same,TGI,TK-10 renal,> 100 µM
same,TGI,SNB-75 CNS,> 100 µM
same,TGI,SK-MEL-5 melanoma,> 100 µM
COc1cc(OC)cc(-n2c(N)c(-c3nc4ccccc4n3C)c3ccc([N+](=O)[O-])cc3c2=O)c1,TGI,NCI-H522 lung,> 100 µM
same,TGI,OVCAR-8 ovarian,> 100 µM
same,TGI,U251 CNS,> 100 µM
same,TGI,ACHN renal,> 100 µM
same,TGI,HCC-2998 colon,> 100 µM
same,TGI,HT29 colon,> 100 µM
same,TGI,SN12C renal,> 100 µM
same,TGI,786-0 renal,> 100 µM
same,TGI,OVCAR-4 ovarian,88.4 µM
same,TGI,BT-549 breast,> 100 µM
same,TGI,SK-MEL-28 melanoma,> 100 µM
same,TGI,NCI-H460 lung,> 100 µM
same,TGI,UO-31 renal,> 100 µM
same,TGI,K-562 leukemia,> 100 µM
same,TGI,RPMI-8226 leukemia,> 100 µM
same,TGI,NCI/ADR-RES ovarian,> 100 µM
same,TGI,MDA-MB-231 breast,> 100 µM
same,TGI,A549 NSCLC,> 100 µM
same,TGI,A498 renal,> 100 µM
same,TGI,COLO 205 colon,> 100 µM
same,TGI,SNB-19 CNS,> 100 µM
same,TGI,DU-145 prostate,> 100 µM
same,TGI,SK-MEL-2 melanoma,> 100 µM
same,TGI,SF-268 CNS,> 100 µM
same,TGI,HCT-15 colon,> 100 µM
same,TGI,MDA-MB-435,> 100 µM
same,TGI,KM12 colon,> 100 µM
same,TGI,HS 578T breast,83.3 µM
same,TGI,SW-620 colon,> 100 µM
same,TGI,CAKI-1 renal,> 100 µM
same,TGI,UACC-62 melanoma,> 100 µM
same,TGI,T-47D breast,> 100 µM
same,TGI,UACC-257 melanoma,> 100 µM
same,TGI,MDA-N,> 100 µM
same,TGI,HCT-116 colon,> 100 µM
same,TGI,LOX IMVI melanoma,> 100 µM
same,TGI,PC-3 prostate,> 100 µM
same,TGI,NCI-H226 lung,> 100 µM
same,TGI,HOP-92 NSCLC,68 µM
same,TGI,NCI-H23 lung,> 100 µM
same,TGI,TK-10 renal,> 100 µM
same,TGI,SNB-75 CNS,63.9 µM
same,TGI,SK-MEL-5 melanoma,> 100 µM
